Reference: ChEMBL document CHEMBL1129429, “Structure-activity relationships for the binding of arylpiperazines and arylbiguanides at 5-HT3 serotonin receptors” (J Med Chem, 1996)

What was measured:
[1] = biological target: Serotonin 3 (5-HT3) receptor; test: Compound was tested for the inhibition of [3H]GR-65630 binding to 5-hydroxytryptamine 3 receptor expressed in NG 108-15 cells; assay type: cell-based
[2] = species: Oryctolagus cuniculus; test: Minimal effective dose for its 5-HT3 -Stimulant potency in rabbit bladder preparation.; assay type: functional
[3] = species: Rattus norvegicus; test: Compound tested for its 5-HT3 -Stimulant potency in rat relative to compound 6 ( Value = 1); assay type: functional
[4] = species: Rattus norvegicus; test: Compound tested for its 5-HT3 -Stimulant potency in rat relative to compound 6 ( Value = 1); Range 0.5-1.3; assay type: functional
[5] = species: Rattus norvegicus; test: Compound tested for its 5-HT3 -Stimulant potency in rat relative to compound 6 ( Value = 1); range 0.3-0.6; assay type: functional

Structure (SMILES): Clc1ccc(N2CCNCC2)cc1
- Ki ([1]; read-out: Ki): 2160 nM

Structure (SMILES): N=C(N)Nc1ccccn1
- Ki ([1]; read-out: Ki): > 10000 nM

Structure (SMILES): NC=Nc1cccc(Cl)c1
- Ki ([1]; read-out: Ki): > 10000 nM

Structure (SMILES): Cc1cccc(N2CCN(C)CC2)n1
- Ki ([1]; read-out: Ki): 560 nM

Structure (SMILES): COc1ccc(N2CCNCC2)c(C)c1
- Ki ([1]; read-out: Ki): 660 nM

Structure (SMILES): C[N+]1(C)CCN(c2cccc(Cl)c2)CC1
- Ki ([1]; read-out: Ki): 1450 nM

Structure (SMILES): N=C(N)NCCc1ccc(Cl)cc1
- Ki ([1]; read-out: Ki): 243 nM

Structure (SMILES): NCCNC(=O)c1cccc(Cl)c1
- Ki ([1]; read-out: Ki): > 10000 nM

Structure (SMILES): CNCCc1cccc(Cl)c1
- Ki ([1]; read-out: Ki): > 10000 nM

Structure (SMILES): N=C(N)NCCc1ccccc1Cl
- Ki ([1]; read-out: Ki): 150 nM

Structure (SMILES): CN(C)C(=N)N=C(N)Nc1cccc(Cl)c1
- Ki ([1]; read-out: Ki): > 10000 nM

Structure (SMILES): NCCC(=O)Nc1cccc(Cl)c1
- Ki ([1]; read-out: Ki): > 10000 nM

Structure (SMILES): CN(C)CCc1cccc(Cl)c1
- Ki ([1]; read-out: Ki): > 10000 nM

Structure (SMILES): NC(=O)Nc1cccc(Cl)c1
- Ki ([1]; read-out: Ki): > 10000 nM

Structure (SMILES): COc1ccc(N2CCNCC2)c(OC)c1
- Ki ([1]; read-out: Ki): > 10000 nM

Structure (SMILES): N=C(N)NCc1cccc(Cl)c1
- Ki ([1]; read-out: Ki): 1200 nM

Structure (SMILES): NCCCCc1cccc(Cl)c1
- Ki ([1]; read-out: Ki): > 10000 nM

Structure (SMILES): Clc1cccc(CC2=NCCN2)c1
- Ki ([1]; read-out: Ki): > 10000 nM

Structure (SMILES): N=C(N)NC(=N)Nc1cccc(Cl)c1
- Ki ([1]; read-out: Ki): 17 nM
- Min effective dose [2]: 0.0066 mg/kg
- Relative potency [3]: 1

Structure (SMILES): NC(N)=Nc1cccc(Cl)c1
- Ki ([1]; read-out: Ki): 35 nM
- Min effective dose [2]: 0.15 mg/kg
- Relative potency [4]: 0.74

Structure (SMILES): c1ccc(C2CCNCC2)cc1
- Ki ([1]; read-out: Ki): > 10000 nM

Structure (SMILES): NCCc1cccc(Cl)c1
- Ki ([1]; read-out: Ki): > 10000 nM

Structure (SMILES): FC(F)(F)c1cccc(N2CCNCC2)c1
- Ki ([1]; read-out: Ki): 1390 nM

Structure (SMILES): c1ccc2c(N3CCNCC3)cccc2c1
- Ki ([1]; read-out: Ki): 175 nM

Structure (SMILES): c1ccc2cc(N3CCNCC3)ccc2c1
- Ki ([1]; read-out: Ki): 32 nM
- Min effective dose [2]: 0.03 mg/kg
- Relative potency [3]: <0.02

Structure (SMILES): CN1CCN(c2ccc3ccccc3n2)CC1
- Ki [1]: 3 nM

Structure (SMILES): Cc1cccc(NC(N)=NC(=N)N)c1
- Ki ([1]; read-out: Ki): 780 nM

Structure (SMILES): Cc1ccc(NC(=N)N=C(N)N)cc1
- Ki ([1]; read-out: Ki): > 10000 nM

Structure (SMILES): Cc1cccc(NC(=N)N)c1
- Ki ([1]; read-out: Ki): 6520 nM

Structure (SMILES): COc1ccccc1C1(O)CCNCC1
- Ki ([1]; read-out: Ki): > 10000 nM

Structure (SMILES): NCCCc1cccc(Cl)c1
- Ki ([1]; read-out: Ki): > 10000 nM

Structure (SMILES): COc1ccc(Cl)cc1/N=C(\N)N=C(N)N
- Ki ([1]; read-out: Ki): 126 nM

Structure (SMILES): C[N+]1(C)CCN(c2cccc(C(F)(F)F)c2)CC1
- Ki ([1]; read-out: Ki): > 10000 nM

Structure (SMILES): NCCCNc1cccc(Cl)c1
- Ki ([1]; read-out: Ki): > 10000 nM

Structure (SMILES): Cc1ccc(NC(N)=NC(=N)N)cc1Cl
- Ki ([1]; read-out: Ki): 225 nM

Structure (SMILES): N=C(N)NC(=O)Nc1cccc(Cl)c1
- Ki ([1]; read-out: Ki): 1250 nM

Structure (SMILES): N=C(N)Cc1cccc(Cl)c1
- Ki ([1]; read-out: Ki): 1200 nM

Structure (SMILES): NC(N)=Nc1ccc2ccccc2c1
- Ki ([1]; read-out: Ki): 25 nM
- Min effective dose [2]: 0.015 mg/kg
- Relative potency [3]: 1

Structure (SMILES): N=C(N)Nc1ccc(Cl)cc1
- Ki ([1]; read-out: Ki): 320 nM

Structure (SMILES): NC(N)=Nc1ccccc1Cl
- Ki ([1]; read-out: Ki): 190 nM

Structure (SMILES): N=C(N)/N=C(\N)Nc1cccc([N+](=O)[O-])c1
- Ki ([1]; read-out: Ki): 220 nM

Structure (SMILES): N=C(N)NC(=N)Nc1ccccc1Cl
- Ki ([1]; read-out: Ki): 62 nM

Structure (SMILES): N=C(N)NC(=N)Nc1ccc2ccccc2c1
- Ki ([1]; read-out: Ki): 12 nM
- Min effective dose [2]: 0.01 mg/kg
- Relative potency [3]: 0.5

Structure (SMILES): COc1cccc(NC(=N)N)c1
- Ki ([1]; read-out: Ki): 1600 nM

Structure (SMILES): N=C(N)NCCc1cccc(Cl)c1
- Ki ([1]; read-out: Ki): 40 nM

Structure (SMILES): NC(N)=Nc1cccc(C(F)(F)F)c1
- Ki ([1]; read-out: Ki): 5700 nM

Structure (SMILES): Clc1cccc(N2CCNCC2)n1
- Ki ([1]; read-out: Ki): 15 nM

Structure (SMILES): COc1ccc(N2CCNCC2)cc1
- Ki ([1]; read-out: Ki): 1640 nM

Structure (SMILES): COc1ccc(Cl)cc1N1CCNCC1
- Ki ([1]; read-out: Ki): 40 nM

Structure (SMILES): c1ccc2nc(N3CCCCC3)ccc2c1
- Ki ([1]; read-out: Ki): > 10000 nM

Structure (SMILES): COc1ccccc1N1CCNCC1
- Ki ([1]; read-out: Ki): 2500 nM

Structure (SMILES): N=C(N)NC(=N)Nc1ccc(Cl)cc1 [4-CHLOROPHENYLBIGUANIDE]
- Ki ([1]; read-out: Ki): 200 nM

Structure (SMILES): Clc1cccc(N2CCNCC2)c1 [CHLOROPHENYLPIPERAZINE]
- Ki ([1]; read-out: Ki): 62 nM
- Relative potency [3]: <0.02

Structure (SMILES): N=C(N)NC(=N)Nc1ccccc1 [PHENYL BIGUANIDE]
- Ki ([1]; read-out: Ki): 1200 nM
- Min effective dose [2]: 0.01 mg/kg
- Relative potency [5]: 0.45

Structure (SMILES): N=C(N)Nc1ccccc1 [PHENYLGUANIDINE]
- Ki ([1]; read-out: Ki): 2340 nM

Structure (SMILES): c1ccc(N2CCNCC2)cc1 [PHENYLPIPERAZINE]
- Ki ([1]; read-out: Ki): 3000 nM

Structure (SMILES): N=C(N)Nc1cccnc1 [PYRAXININE]
- Ki ([1]; read-out: Ki): 2910 nM
